Measurements reported in patent US4515811A, “Process for the resolution of d,1 2-(6-methoxy-2-naphthyl)propionic acid” (Syntex Corporation, priority 1980, dated 1985).
Structures can show the parent of a compound that is named as a salt.

Test system: not listed separately
Assay: Solubility of resolving agent in water
Assay type: physicochemical
Conditions: not given

SMILES	solubility in water (in words)
CCCCCCCCNC[C@H](O)[C@@H](O)[C@H](O)[C@H](O)CO [N-n-octyl-D-glucamine]	substantially insoluble in water

Test system: carrageenin-induced paw inflammation in the rat
Assay: not given
Conditions: Example 32; female rats, oral gavage at hour 0, carrageenin at hour 1, sacrificed hour 4; relative to phenylbutazone = 1, molar basis
Experimental: The anti-inflammatory activity of each of the compounds listed below is compared with the activity of phenylbutazone by means of the carrageenin-induced rat paw inflammation test described below.
TEST FOR ANTI-INFLAMMATORY ACTIVITY UTILIZING CARRAGEENIN-INDUCED PAW INFLAMMATION IN THE RAT
Materials and Methods--Female rats weighing 80-90 grams are used. The test materials are given at hour 0 orally by gavage in 1 ml. aqueous vehicle. At hour 1, 0.05 ml. of a 1% solution (in 0.9% NaCl) of carrageenin is injected into the right hind paw. This injection causes an inflammation of the paw. The rats are sacrificed at hour 4, at which time both hind paws are removed and weighed separately.
End point: % increase in paw size calculated as follows: [formula]

SMILES	Oral Anti-Inflammatory Activity (on a molar equivalent basis) (Phenylbutazone = 1)
COc1ccc2cc([C@H](C)C(=O)O)ccc2c1 [N-cyclohexyl-D-glucamine salt of d 2-(6-methoxy-2-naphthyl)p] [N-cyclohexyl-D-glucamine salt of d 2-(6-methoxy-2-naphthyl)propionic acid]	11
COc1ccc2cc([C@H](C)C(=O)O)ccc2c1 [N-ethyl-D-glucamine salt of d 2-(6-methoxy-2-naphthyl)propio] [N-ethyl-D-glucamine salt of d 2-(6-methoxy-2-naphthyl)propionic acid]	17
COc1ccc2cc([C@H](C)C(=O)O)ccc2c1 [N-n-butyl-D-glucamine salt of d 2-(6-methoxy-2-naphthyl)prop] [N-n-butyl-D-glucamine salt of d 2-(6-methoxy-2-naphthyl)propionic acid]	5
COc1ccc2cc([C@H](C)C(=O)O)ccc2c1 [N-n-octadecyl-D-glucamine salt of d 2-(6-methoxy-2-naphthyl)] [N-n-octadecyl-D-glucamine salt of d 2-(6-methoxy-2-naphthyl)propionic acid]	7
COc1ccc2cc([C@H](C)C(=O)O)ccc2c1 [N-n-octyl-D-glucamine salt of d 2-(6-methoxy-2-naphthyl)prop] [N-n-octyl-D-glucamine salt of d 2-(6-methoxy-2-naphthyl)propionic acid]	17
COc1ccc2cc([C@H](C)C(=O)O)ccc2c1 [N-n-propyl-D-glucamine salt of d 2-(6-methoxy-2-naphthyl)pro] [N-n-propyl-D-glucamine salt of d 2-(6-methoxy-2-naphthyl)propionic acid]	20

Same assay, conditions: Example 33; test of Example 32 repeated; oral, female rats; relative to phenylbutazone = 1, molar basis

SMILES	Oral Anti-Inflammatory Activity (on a molar equivalent basis) (Phenylbutazone = 1)
COc1ccc2cc([C@H](C)C(=O)O)ccc2c1 [N-cyclooctyl-D-glucamine salt of d 2-(6-methoxy-2-naphthyl)p] [N-cyclooctyl-D-glucamine salt of d 2-(6-methoxy-2-naphthyl)propionic acid]	20
COc1ccc2cc([C@H](C)C(=O)O)ccc2c1 [N-cyclopropyl-D-glucamine salt of d 2-(6-methoxy-2-naphthyl)] [N-cyclopropyl-D-glucamine salt of d 2-(6-methoxy-2-naphthyl)propionic acid]	9
